Consider 8 compounds from US8940911B2, “Squarylated lactones inhibitors for bacterial biofilm formation” (Syracuse University, priority 2012, dated 2015).

Data set [1] concerns E. coli RP437. The experiment in a line: Static biofilm inhibition assay (crystal violet, 96-well plate). Conditions: E. coli RP437, 200 μM, 24 h, crystal violet. Format: cell-based, Escherichia coli. From the text: A primary objective was to test the ability of SHLs to inhibit biofilm formation against E. coli RP437. […] Viable controls were required that would allow us to measure and compare the activity of SHLs against known biofilm inhibitors and naturally occurring AI-1 signal molecules. […] The activity of this class of molecule is presumably similar or even marginally higher than that of brominated furanone (BF8 48) (56%).
For the present invention, the E. coli RP437 biofilms were allowed to develop in a 96-well plate in the absence or presence of SHLs. After 24 hours, the planktonic bacteria and remaining media were removed and the crystal violet was introduced in the wells. The bacterial biofilm being formed at the air/liquid interface on the inside wall of the well is stained readily by crystal violet. After removing the excess crystal violet and repeatedly washing the wells with water, followed by ethanol solubilization of the dye, allows quantification of the amount of biofilm by spectrophotometry (OD600). […] We believe that the observed biofilm inhibition activity cannot be directly attributed to any predominant structural feature inherent in the SHLs. Rather, the small deviations in the structures of the SHLs and their effect on biofilm formation could be a result of the nature of non-covalent forces that arise during SHLs presumed binding within the receptor active site.
An overnight culture of E. coli RP437 grown in LB media (OD600 of 1.0) containing streptomycin (10 μg/mL) was subsequently sub-cultured to an OD600 of 0.04 (1:100 dilution with LB media). To each well in the solvent resistant polypropylene or polystyrene-based 96-well microtiter plates were added 200 μL of the sub-cultured bacteria respectively. To each of the wells containing the bacterial cultures varying concentrations of the synthetic molecules was added and the contents in each well were gently mixed. Control wells comprised of untreated bacterial culture (four replicates) and the LB media (four replicates). The microtiter plates were then covered and wrapped in a Saran wrap and allowed to incubate at 37° C. for 24 hours without shaking. After that time, the microbial medium in each well was discarded and the remaining biofilm that was formed during incubation was stained with 225 μL of a 0.1% crystal violet solution and allowed to incubate at room temperature for 30 minutes. After the incubation period, the crystal violet was discarded and the wells were gently washed twice with water (230-250 μL) and allowed to air dry for 15-20 minutes. For the purpose of solubilizing the remaining crystal violet that had stained the biofilm present in the interior of the 96-well plates, a 250 μL solution of 95% ethanol was used. After the addition of 95% ethanol, the contents of each well were mixed thoroughly and allowed to sit for 15-20 minutes. Finally, the biofilm formed was quantified by transferring 100 μL of the ethanol solution into a fresh polystyrene microtiter dish that was subsequently read by an absorbance plate reader (A600). After elimination of background absorbance, the percentage inhibition was calculated by dividing the amount of absorbed crystal violet in wells that contained the synthetic compound by the amount of absorbed crystal violet in wells that contained bacteria only (control). Biofilm assays for each synthetic compound were repeated two to three times and each concentration considered for inhibition studies were tested over four replicates.

In data set [2] the test system is SK-N-SH cells. The experiment in a line: Human neuroblastoma cancer cell cytotoxicity assay (CCK-8). Type of data set: cell-based. To be noted: 200 or 300 μM, 1 h exposure, read after 24 h. As to the method: After examining the efficacy of SHLs at inhibiting biofilm, dispersing established biofilms, and reducing the maximum thickness of biofilms without being toxic to the planktonic bacterial cells, we tested the cytotoxicity of the key potent SHLs on the human neuroblastoma cancer cell line SK-N-SH. These studies were conducted such that the SK-N-SH cells were subjected to the maximum concentrations of the key potent SHLs tested on bacteria.
A previously grown T-flask of SK-N-SH cells was observed under a microscope to confirm the confluence of the cells. Next, the old media was discarded and the adherent cells were washed with ˜10 mL of MEM(−). The wash was discarded and 2 mL of Trypsin-EDTA solution was added to the T-flask and incubated for 10 minutes at 37° C. and at 5% atmosphere of CO2. Afterwards, the flask was viewed under a microscope to determine if the cells were suspended in the solution. Subsequently, ˜8 mL of MEM(+) was added to the flask and carefully mixed via pipette to break-up any large clusters of cells. 100 μL of the culture was added to an Eppendorf tube and combined with 100 μL of […]. A hemocytometer and glass cover slide was carefully cleaned with a kimwipe and ethanol. Placing the glass cover slide on top of the hemocytometer, 10 μL of the mixture in the Eppendorf tube was pipetted into the two grooves on the hemocytometer, avoiding the generation of bubbles. The hemocytometer was viewed one chamber at time under a microscope and the live cells were counted using the hemocytometer cell counting method. The remaining cell culture in the T-flask was diluted with MEM(+) to 25 mL such that there would be ˜5000 cells/mL. 100 μL of the culture was placed into wells on a 96 well plate such that one column had only MEM(+) and the wells on the outer perimeter of the plate were left empty. Four plates were made in this manner so that there would be plates for times 0, 24, 48, and 72 h. The plate was then incubated for 24 h at 37° C. and at 5% atmosphere of CO2. Subsequently, the old media was discarded and the wells were subjected to either 200 μM or 300 μM solutions of compounds 3, 4, 8, and 46 in MEM(+) (100 μL) such that one column still contained only MEM(+) and one column contained MEM(+) and untreated cells. The plate was incubated for 1 h and then the solutions were discarded and fresh MEM(+) media was added (100 μL). Each plate was then incubated for the desired time (0, 24, 48, or 72 h). After incubation, 10 μL of CCK-8 solution was added to each well and then the plate was incubated for 2 h followed by reading the OD450 with a microplate reader.

Data set [3] concerns DsRed-express-labeled E. coli RP437. The experiment in a line: Confocal imaging of E. coli biofilms on stainless steel coupons (COMSTAT). Format: cell-based, Escherichia coli. To be noted: 200 μM, 24 h at 37° C., CLSM/COMSTAT. As to the method:
The effects of SHLs upon the bacterial biofilm were examined; more specifically, the effect of SHLs upon the biofilm architecture. […] These studies were conducted by static biofilm assays employing crystal violet staining that indicates the total biomass that resides within a biofilm but provides no indication regarding the topology of the biofilms. To elucidate the topological features assumed by the E. coli RP437 biofilm in the presence of SHLs and BF8 48, studies of biofilms consisting of DsRed-express-labeled E. coli RP437 that is fluorescent and can be easily visualized by confocal laser scanning microscopy (CLSM) were performed. […] Further, the stacked images in vinyl-SHL 3 indicating the maximum thickness of the biofilm is considerably smaller than the biofilms in BF8 48 and the untreated E. coli samples. We developed the biofilms consisting of DsRed-express-labeled E. coli on stainless steel coupons (316 L, 1 in×1 in.) for 24 h at 37° C. that were treated with BF8 48 or SHLs or were left untreated. All the samples were analyzed with CLSM (see FIG. 8) and the maximum thickness of biofilms calculated using the COMSTAT software. […] Moreover, butyl-SHL 8 and butoxy-SCPA 46 reduce the biofilm thickness by 38% and 27%, respectively.
An overnight culture of E. coli RP437 pRSH103 grown in LB media (OD600 of 1.0) containing tetracycline (3 μg/mL) was subsequently sub-cultured to an OD600 of 0.04 (1:100 dilution with LB media). To each well in the solvent resistant polypropylene or polystyrene-based 24-well microtiter plates was added 200 μM synthetic molecules in DMSO solution respectively. In addition, to each of the wells containing the known concentrations of synthetic molecules was added 2 mL of the sub-cultured bacteria and the contents in each well were gently mixed. […] The fluorescent emission was detected with a LP 560 nm emission filter. The coupons were gently placed upside down on a microscope cover glass (24×60 mm, No. 2, VWR International LLC, West Chester, Pa., USA) and analyzed with CLSM. […]

The test system of data set [4] is P. aeruginosa PAO1-GFP/pSMC2. The experiment in a line: Confocal microscopy analysis of P. aeruginosa biofilms (COMSTAT). Format: cell-based, Pseudomonas aeruginosa. Conditions: 400 μM, 24 h at 37° C., CLSM/COMSTAT. The procedure:
FIG. 13 is a series of representative confocal laser scanning microscopy images of biofilm formation by P. aeruginosa PAO1-GFP/pSMC2 in the absence of inhibitor (A); and in the presence of 400 μM BF4 49 (B); 400 μM hexyl-SHL 9 (C); 400 μM tolyl-SHL 11 (D); and 400 μM thienyl-SHL 12 (E).
FIG. 14 is a graph of quantification of biofilm formation by P. aeruginosa PAO1-GFP/pSMC2 in the absence and presence of 400 μM SHLs 9, 11 and 12. Biomass, mean thickness, and surface area are quantified from fluorescence image using COMSTAT software. Z-Stack images from at least four different locations were used. Values are normalized by that of the brominated furanone-free control.
We developed the biofilms consisting of […] P. aeruginosa on stainless steel coupons (316 L, ⅜ in×⅜ in.) for 24 h at 37° C. in the absence or presence of 400 μM hexyl-SHL 9, tolyl-SHL 11, thienyl-SHL 12, and BF4 49. All the samples were analyzed with CLSM (see FIG. 13) and the biomass, surface area, and mean thickness of biofilms were calculated using the COMSTAT software. Tolyl-SHL 11 reduced the biomass by ˜90%, similar to that of the toxic BF4 49.

Consider `CCCCOc1c(OCCCC)c(=O)c1=O` [BSQ 44, 3,4-dibutoxy-cyclobut-3-ene-1,2-dione, reference compound], for which, in data set [1], the “biofilm inhibition (in words)” value is “Poor biofilm inhibition”. As to `CC(C)Oc1c(OC(C)C)c(=O)c1=O` [IPSQ 42, reference compound], the “biofilm inhibition (in words)” value in data set [1] is listed as “Poor biofilm inhibition”. On the same count and under the same terms, for `C=CCc1c(NC2CCOC2=O)c(=O)c1=O` (stereo not drawn) [allyl-SHL2] the value was “Poor biofilm inhibition”; for `CCCCOc1c(NC2CCOC2=O)c(=O)c1=O` (stereo not drawn) [butoxy-SHL 1], “weaker biofilm inhibition”. In the case of `CCCCc1c(NC2CCOC2=O)c(=O)c1=O` (stereo not drawn) [butyl-SHL 8], in data set [2], the “cytotoxicity on human neuroblastoma cancer cells (in words)” value is recorded as “does not appear to be toxic”. The “reduction of the maximum thickness of biofilm” value in data set [3] is recorded as 38%. Also, the “inhibition of biofilm formation” value in data set [1] was 48%.

As for `CCCCCCc1c(NC2CCOC2=O)c(=O)c1=O` (stereo not drawn) [hexyl-SHL 9], in data set [1], the “inhibition of biofilm formation” value came out at 42%. The “P. aeruginosa biofilm inhibition (in words)” value in data set [4] was “mild”.

With `O=C1OCCC1Nc1c(-c2ccccc2)c(=O)c1=O` (stereo not drawn) [phenyl-SHL 10], the “inhibition of biofilm formation” value in data set [1] worked out at 44%. Consider `C=Cc1c(NC2CCOC2=O)c(=O)c1=O` [vinyl-L-SHL 4], for which the “cytotoxicity on human neuroblastoma cancer cells (in words)” value in data set [2] is listed as “toxic”. For the same compound, in data set [1], the “biofilm inhibition (in words)” value is on record as “weaker biofilm inhibition”.
